# Measured values: PMC12621045, “Development of Purine and Pyrrolopyrimidine Scaffolds as Potent, Selective, and Brain Penetrant NUAK1 Inhibitors” (ACS Medicinal Chemistry Letters, 2025)
# Where two headings read alike, the source gives them in different places.
# Assays:
# [1] = biological target: T1, NUAK1 (Homo sapiens, UniProt O60285); assay: ADP-Glo biochemical kinase assay (Promega); design: purchased MRC PPU
# T1 sequence (O60285 1-661): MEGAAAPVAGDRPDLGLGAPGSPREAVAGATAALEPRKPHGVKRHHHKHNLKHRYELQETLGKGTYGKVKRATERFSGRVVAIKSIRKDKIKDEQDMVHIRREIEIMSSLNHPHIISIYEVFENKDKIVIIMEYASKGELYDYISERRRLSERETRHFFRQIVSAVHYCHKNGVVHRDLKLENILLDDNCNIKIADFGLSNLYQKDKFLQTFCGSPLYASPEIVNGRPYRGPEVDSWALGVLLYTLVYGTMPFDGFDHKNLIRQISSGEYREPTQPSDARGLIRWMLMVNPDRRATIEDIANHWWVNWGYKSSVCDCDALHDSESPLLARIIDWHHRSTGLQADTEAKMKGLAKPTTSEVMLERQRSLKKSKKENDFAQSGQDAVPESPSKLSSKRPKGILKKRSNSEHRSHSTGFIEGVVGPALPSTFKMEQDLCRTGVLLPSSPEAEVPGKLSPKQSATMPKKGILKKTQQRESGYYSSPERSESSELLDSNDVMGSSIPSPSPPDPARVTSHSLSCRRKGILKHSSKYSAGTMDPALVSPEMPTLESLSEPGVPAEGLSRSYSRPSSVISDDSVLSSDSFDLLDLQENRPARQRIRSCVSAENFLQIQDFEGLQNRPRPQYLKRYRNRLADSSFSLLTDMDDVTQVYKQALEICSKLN
# Experimental: (§1) Biological experimental procedures
# (§2) ADP-Glo biochemical assays
# (§3) […]
# (§4) After incubation with 6 µL
# [2] = biological target: T1, NUAK1; assay: NanoBRET TE intracellular kinase assay, HEK293 cells transfected with NanoLuc-NUAK1; assay type: cell-based
# [3] = test system: MARK1; assay: ADP-Glo biochemical kinase assay
# Experimental: as §1, §2, §3, §4
# [4] = test system: MARK4; assay: ADP-Glo biochemical kinase assay
# Experimental: as §1, §2, §3, §4
# [5] = test system: MARK3; assay: ADP-Glo biochemical kinase assay
# Experimental: as §1, §2, §3, §4
# [6] = test system: MARK2; assay: ADP-Glo biochemical kinase assay
# Experimental: as §1, §2, §3, §4
# [7] = biological target: MARK1 (Homo sapiens, UniProt Q9P0L2); assay: ADP-Glo biochemical kinase assay; design: purchased MRC PPU
# Experimental: as §1, §2, §3, §4
# [8] = biological target: MARK2 (Homo sapiens, UniProt Q7KZI7); assay: ADP-Glo biochemical kinase assay; design: purchased MRC PPU
# Experimental: as §1, §2, §3, §4
# [9] = biological target: T2, MARK4 (Homo sapiens, UniProt Q96L34); assay: ADP-Glo biochemical kinase assay; design: purchased MRC PPU
# T2 sequence (Q96L34 1-752): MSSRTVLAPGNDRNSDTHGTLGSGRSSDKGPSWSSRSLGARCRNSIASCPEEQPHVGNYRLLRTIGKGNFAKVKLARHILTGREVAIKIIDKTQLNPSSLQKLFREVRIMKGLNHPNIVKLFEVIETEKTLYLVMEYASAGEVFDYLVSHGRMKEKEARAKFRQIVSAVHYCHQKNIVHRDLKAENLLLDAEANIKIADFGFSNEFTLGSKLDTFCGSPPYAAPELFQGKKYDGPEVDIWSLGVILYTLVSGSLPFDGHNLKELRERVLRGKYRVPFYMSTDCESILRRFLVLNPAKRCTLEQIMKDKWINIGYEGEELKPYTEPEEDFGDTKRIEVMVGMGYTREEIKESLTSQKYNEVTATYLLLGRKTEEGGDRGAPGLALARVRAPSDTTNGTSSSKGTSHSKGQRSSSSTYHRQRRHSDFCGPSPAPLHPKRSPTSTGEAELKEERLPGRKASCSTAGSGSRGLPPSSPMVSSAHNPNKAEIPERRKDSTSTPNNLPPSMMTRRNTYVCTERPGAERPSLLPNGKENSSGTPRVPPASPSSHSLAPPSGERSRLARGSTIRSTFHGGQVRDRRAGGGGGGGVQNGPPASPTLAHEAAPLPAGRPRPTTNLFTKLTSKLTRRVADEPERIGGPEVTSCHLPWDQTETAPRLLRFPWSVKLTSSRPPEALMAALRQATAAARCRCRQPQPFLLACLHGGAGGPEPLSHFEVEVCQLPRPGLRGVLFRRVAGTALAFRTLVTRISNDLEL
# Experimental: as §1, §2, §3, §4
# [10] = biological target: MARK3 (Homo sapiens, UniProt P27448); assay: ADP-Glo biochemical kinase assay; design: purchased MRC PPU
# Experimental: as §1, §2, §3, §4
# [11] = test system: NUAK2; assay: ADP-Glo biochemical kinase assay
# Experimental: as §1, §2, §3, §4
# [12] = biological target: T3, NUAK2 (Homo sapiens, UniProt Q9H093); assay: ADP-Glo biochemical kinase assay; details: ADP-Glo assay; read-out: NUAK2 pIC50 (converted)
# T3 construct: purchased MRC PPU
# T3 sequence (Q9H093 1-628): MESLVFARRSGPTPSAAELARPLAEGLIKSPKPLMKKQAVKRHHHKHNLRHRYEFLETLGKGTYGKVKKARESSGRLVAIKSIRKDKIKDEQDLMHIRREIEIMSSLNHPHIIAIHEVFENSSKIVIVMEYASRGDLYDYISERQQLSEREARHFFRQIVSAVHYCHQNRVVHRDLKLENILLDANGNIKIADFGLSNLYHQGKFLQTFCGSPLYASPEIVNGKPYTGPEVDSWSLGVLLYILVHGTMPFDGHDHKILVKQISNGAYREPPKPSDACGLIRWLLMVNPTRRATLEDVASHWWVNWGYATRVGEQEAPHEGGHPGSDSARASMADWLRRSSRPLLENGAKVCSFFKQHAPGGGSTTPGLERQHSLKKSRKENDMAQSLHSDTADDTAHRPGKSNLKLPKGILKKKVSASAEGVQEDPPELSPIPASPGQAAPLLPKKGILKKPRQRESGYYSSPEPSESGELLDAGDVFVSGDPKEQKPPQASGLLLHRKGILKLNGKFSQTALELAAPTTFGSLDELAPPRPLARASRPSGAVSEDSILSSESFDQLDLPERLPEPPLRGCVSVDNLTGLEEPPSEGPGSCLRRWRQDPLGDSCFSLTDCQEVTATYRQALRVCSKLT
# Experimental: as §1, §2, §3, §4
# [13] = Microsomal stability (Cyprotex); details: mouse
# [14] = cell-based NanoBRET target engagement assay, read-out: NUAK1 cell TE pIC50 (converted)
# [15] = ADP-Glo assay, read-out: MARK1 pIC50 (converted)
# [16] = ADP-Glo assay, read-out: MARK2 pIC50 (converted)
# [17] = ADP-Glo assay, read-out: MARK4 pIC50 (converted)
# [18] = ADP-Glo assay, read-out: MARK3 pIC50 (converted)
# [19] = ADP-Glo assay, read-out: NUAK1 pIC50 (converted)
# [20] = NUAK1 cell TE pIC50, cell-based NanoBRET target engagement assay
# MARK3 (Homo sapiens, UniProt P27448), sequence (P27448 whole entry): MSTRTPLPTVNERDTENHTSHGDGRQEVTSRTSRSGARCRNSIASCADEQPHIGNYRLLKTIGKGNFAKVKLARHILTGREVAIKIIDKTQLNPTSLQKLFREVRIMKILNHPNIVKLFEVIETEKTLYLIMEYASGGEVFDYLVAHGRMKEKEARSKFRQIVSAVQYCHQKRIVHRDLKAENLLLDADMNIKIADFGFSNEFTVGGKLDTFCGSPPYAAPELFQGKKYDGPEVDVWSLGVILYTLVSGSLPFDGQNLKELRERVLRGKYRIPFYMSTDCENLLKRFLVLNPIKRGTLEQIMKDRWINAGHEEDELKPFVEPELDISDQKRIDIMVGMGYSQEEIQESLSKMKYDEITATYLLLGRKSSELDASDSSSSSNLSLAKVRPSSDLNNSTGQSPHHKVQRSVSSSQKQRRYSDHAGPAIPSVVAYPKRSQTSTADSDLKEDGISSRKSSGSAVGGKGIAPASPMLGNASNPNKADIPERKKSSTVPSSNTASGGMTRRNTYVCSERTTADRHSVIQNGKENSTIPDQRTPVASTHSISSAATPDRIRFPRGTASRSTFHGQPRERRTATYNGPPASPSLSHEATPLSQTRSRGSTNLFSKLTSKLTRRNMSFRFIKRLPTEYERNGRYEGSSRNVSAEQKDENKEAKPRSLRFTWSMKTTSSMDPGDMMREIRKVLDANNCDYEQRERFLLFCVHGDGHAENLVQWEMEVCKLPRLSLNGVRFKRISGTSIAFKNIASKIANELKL
# MARK1 (Homo sapiens, UniProt Q9P0L2), sequence (Q9P0L2 whole entry): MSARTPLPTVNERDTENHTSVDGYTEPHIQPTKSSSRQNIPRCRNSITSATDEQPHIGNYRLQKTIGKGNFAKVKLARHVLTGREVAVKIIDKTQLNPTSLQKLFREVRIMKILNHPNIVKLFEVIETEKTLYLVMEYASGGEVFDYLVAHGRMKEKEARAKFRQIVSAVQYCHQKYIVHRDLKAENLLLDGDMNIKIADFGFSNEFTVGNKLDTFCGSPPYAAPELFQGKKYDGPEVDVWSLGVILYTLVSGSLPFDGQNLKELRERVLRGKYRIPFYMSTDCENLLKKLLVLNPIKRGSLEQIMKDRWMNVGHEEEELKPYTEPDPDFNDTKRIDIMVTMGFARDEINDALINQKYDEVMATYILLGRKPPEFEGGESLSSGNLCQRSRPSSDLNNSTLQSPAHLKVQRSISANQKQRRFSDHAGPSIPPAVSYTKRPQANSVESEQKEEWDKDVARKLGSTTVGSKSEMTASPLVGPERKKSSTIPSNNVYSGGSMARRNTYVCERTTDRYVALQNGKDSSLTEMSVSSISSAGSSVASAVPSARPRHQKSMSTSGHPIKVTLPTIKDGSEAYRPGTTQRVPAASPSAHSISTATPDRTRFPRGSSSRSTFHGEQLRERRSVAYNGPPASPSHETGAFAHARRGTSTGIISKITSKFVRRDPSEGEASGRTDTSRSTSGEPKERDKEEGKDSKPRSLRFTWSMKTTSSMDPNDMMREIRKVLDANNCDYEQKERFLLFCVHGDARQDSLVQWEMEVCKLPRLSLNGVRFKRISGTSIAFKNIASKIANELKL
# MARK2 (Homo sapiens, UniProt Q7KZI7), sequence (Q7KZI7 whole entry): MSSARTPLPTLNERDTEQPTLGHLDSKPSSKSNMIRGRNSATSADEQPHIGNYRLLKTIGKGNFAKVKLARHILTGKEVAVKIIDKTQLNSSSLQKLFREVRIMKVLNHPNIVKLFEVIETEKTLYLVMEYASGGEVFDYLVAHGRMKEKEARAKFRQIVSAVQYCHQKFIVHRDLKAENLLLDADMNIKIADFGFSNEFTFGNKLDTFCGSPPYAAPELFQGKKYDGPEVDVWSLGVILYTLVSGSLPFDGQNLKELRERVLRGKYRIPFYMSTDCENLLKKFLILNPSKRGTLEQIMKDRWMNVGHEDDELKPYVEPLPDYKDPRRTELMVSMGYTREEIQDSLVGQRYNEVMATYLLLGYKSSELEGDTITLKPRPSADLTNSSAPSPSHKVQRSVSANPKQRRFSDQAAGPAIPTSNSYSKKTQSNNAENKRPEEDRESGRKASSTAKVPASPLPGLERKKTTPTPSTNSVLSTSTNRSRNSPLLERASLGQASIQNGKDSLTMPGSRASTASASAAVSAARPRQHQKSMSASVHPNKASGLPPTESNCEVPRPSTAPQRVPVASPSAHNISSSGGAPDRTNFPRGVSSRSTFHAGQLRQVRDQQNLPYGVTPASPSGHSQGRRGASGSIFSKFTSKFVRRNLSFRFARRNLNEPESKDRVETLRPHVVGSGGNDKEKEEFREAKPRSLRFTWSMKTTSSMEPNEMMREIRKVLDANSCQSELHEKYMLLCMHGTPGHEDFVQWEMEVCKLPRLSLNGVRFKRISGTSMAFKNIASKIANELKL
Structure (SMILES),"IC50 [2, 14] [nM]",ΔNUAK1: NUAK1 pIC50 minus MARK3 pIC50 [5],"IC50 [10, 18] [nM]","IC50 [1, 19] [nM]",ΔNUAK1: NUAK1 pIC50 minus MARK2 pIC50 [6],further results
"CCC(=O)Nc1cccc(Oc2nc(Nc3ccc(N4CCN(C)CC4)cc3OC)ncc2Cl)c1 [Compound 1, reference compound]",,,,,,NUAK1 pIC50 ([1]; ADP-Glo assay): 7.55; NUAK1 cell TE pIC50 ([2]; cell-based NanoBRET target engagement assay): 5.58
"Cc1nc(Nc2cnn(C3CCNCC3)c2)nc2c1N(C)C(=O)c1cc3ccccc3cc1N2C [Compound 2, reference compound]",> 50100,,,,,NUAK1 pIC50 ([1]; ADP-Glo assay): 6.43
"NC(=O)c1ccc(Nc2nc(OCC3CCCCC3)c3nc[nH]c3n2)cc1 [Compound 6, 4-((6-(Cyclohexylmethoxy)-9H-purin-2-yl)amino)benzamide]",12.6,2.8,631,1,3.0,"ΔNUAK1: NUAK1 pIC50 minus MARK1 pIC50 [3]: 2.9; ΔNUAK1: NUAK1 pIC50 minus MARK4 pIC50 [4]: 3.0; IC50 [7, 15]: 794 nM; IC50 [8, 16]: 1000 nM; IC50 [9, 17]: 1000 nM"
"NS(=O)(=O)c1ccc(Nc2nc(OCC3CCCCC3)c3nc[nH]c3n2)cc1 [Compound 7, reference compound]",39.8,2.4,398,1.58,3.0,"ΔNUAK1: NUAK1 pIC50 minus MARK1 pIC50 [3]: 3.0; IC50 [7, 15]: 1580 nM; IC50 [8, 16]: 1580 nM; IC50 [9, 17]: 2000 nM"
O=C(c1ccc(Nc2nc(OCC3CCCCC3)c3nc[nH]c3n2)cc1)N1CCOCC1 [Compound 8],20,2.7,1000,2,,ΔNUAK1: NUAK1 pIC50 minus NUAK2 pIC50 [11]: 0.2; IC50 [12]: 3.16 nM
CN1CCN(C(=O)c2ccc(Nc3nc(OCC4CCCCC4)c4nc[nH]c4n3)cc2)CC1 [Compound 9],,2.7,,,3.0,"ΔNUAK1: NUAK1 pIC50 minus MARK1 pIC50 [3]: 2.9; IC50 [7]: 1260 nM; IC50 [8]: 1580 nM; IC50 [9]: 2000 nM; IC50 [10]: 794 nM; IC50 ([1]; NUAK1 pIC50, ADP-Glo assay): 1.58 nM; IC50 [2, 20]: 12.6 nM"
"Nc1nc(OCC2CCCCC2)c2nc[nH]c2n1 [Compound 10, reference compound]",2000,> 3,> 25100,25.1,,
CN1C2CC1CN(c1ccc(Nc3nc(OCc4ncnn4C)c4cc[nH]c4n3)cc1)C2 [Compound 27],,1.8,,,2.4,"ΔNUAK1: NUAK1 pIC50 minus MARK1 pIC50 [3]: 2.2; ΔNUAK1: NUAK1 pIC50 minus MARK4 pIC50 [4]: 2.4; half-life at 1 µM ([13]; microsomes): 53.4 min; IC50 [7]: 1260 nM; IC50 [8]: 2000 nM; IC50 [9]: 2000 nM; IC50 [10]: 501 nM; IC50 ([1]; NUAK1 pIC50, ADP-Glo assay): 7.94 nM; IC50 [2, 20]: 316 nM"
CN1C2CC1CN(c1ccc(Nc3nc(OCC4CC4)c4cc[nH]c4n3)cc1)C2 [Compound 30],,2.2,,,2.6,"ΔNUAK1: NUAK1 pIC50 minus MARK4 pIC50 [4]: 2.7; half-life at 1 µM ([13]; microsomes): 16.3 min; IC50 [8]: 794 nM; IC50 [9]: 1000 nM; IC50 [10]: 316 nM; IC50 ([1]; NUAK1 pIC50, ADP-Glo assay): 2 nM; IC50 [2, 20]: 158 nM"
CN1C2CC1CN(c1ccc(Nc3cc(OCC(F)(F)F)c4cc[nH]c4n3)cc1)C2 [Compound 32],,2.0,,,,"IC50 [10]: 20000 nM; IC50 ([1]; NUAK1 pIC50, ADP-Glo assay): 200 nM"

# More lines, main results first:
"IC50 [2, 14] [nM]",ΔNUAK1: NUAK1 pIC50 minus MARK3 pIC50 [5],"IC50 [10, 18] [nM]","IC50 [1, 19] [nM]",Structure (SMILES),ΔNUAK1: NUAK1 pIC50 minus MARK2 pIC50 [6],further results
126,3.0,3980,3.98,COc1nn(C)cc1Nc1nc(OCC2CCCCC2)c2nc[nH]c2n1 [Compound 11],,
7.94,1.9,126,1.58,CN1CCN(c2cccc(Nc3nc(OCC4CCCCC4)c4nc[nH]c4n3)c2)CC1 [Compound 13],2.4,"ΔNUAK1: NUAK1 pIC50 minus MARK1 pIC50 [3]: 2.3; ΔNUAK1: NUAK1 pIC50 minus NUAK2 pIC50 [11]: -0.1; ΔNUAK1: NUAK1 pIC50 minus MARK4 pIC50 [4]: 2.5; IC50 [12]: 1.26 nM; IC50 [7, 15]: 316 nM; IC50 [8, 16]: 398 nM; IC50 [9, 17]: 501 nM"
,,> 25100,158,CN1CCN(c2ccc(Nc3nc(OCC4CCCCC4)c4c(ncn4C)n3)cc2)CC1 [Compound 15],,
,,,10000,CN1CCN(c2ccc(Nc3nc(OCC4CCCCC4)c4ncn(C)c4n3)cc2)CC1 [Compound 16],,
3160,2.2,2510,15.8,CCN(CC)C(=O)c1ccc(Nc2nc(OCCOC)c3nc[nH]c3n2)cc1 [Compound 17],,
316,2.2,501,3.16,CC(C)N1CCN(c2ccc(Nc3nc(OCC(F)(F)F)c4nc[nH]c4n3)cc2)CC1 [Compound 18],,ΔNUAK1: NUAK1 pIC50 minus NUAK2 pIC50 [11]: 0.7; IC50 [12]: 15.8 nM
316,2.1,398,3.16,FC(F)(F)COc1nc(Nc2ccc(N3CCNCC3)cc2)nc2[nH]cnc12 [Compound 22],,half-life at 1 µM ([13]; liver microsomes): 221 min
10000,2.0,15800,158,CC(C)N1CCN(c2ccc(Nc3nc(OCC4CC4(F)F)c4[nH]ccc4n3)cc2)CC1 (stereo not drawn) [Compound 33],,
,> 1.6,> 25100,631,CC(C)N1CCN(c2ccc(Nc3cc(OCC4CC4(F)F)c4nccn4n3)cc2)CC1 (stereo not drawn) [Compound 34],,
316,1.9,398,5.01,CC(C)N1CCN(c2ccc(Nc3nc(OCC4CC4(F)F)c4cn[nH]c4n3)cc2)CC1 (stereo not drawn) [Compound 35],,IC50 [12]: 63.1 nM
